Drawing on patent publication US9718808B2, “Inhibitors of the renal outer medullary potassium channel” (Merck Sharp & Dohme Corp., priority 2014, dated 2017), this text covers IC50 for 33 compounds.

Each structure is given as a SMILES string.

Chain of ROMK (Kir1.1) channel (P48048 whole entry): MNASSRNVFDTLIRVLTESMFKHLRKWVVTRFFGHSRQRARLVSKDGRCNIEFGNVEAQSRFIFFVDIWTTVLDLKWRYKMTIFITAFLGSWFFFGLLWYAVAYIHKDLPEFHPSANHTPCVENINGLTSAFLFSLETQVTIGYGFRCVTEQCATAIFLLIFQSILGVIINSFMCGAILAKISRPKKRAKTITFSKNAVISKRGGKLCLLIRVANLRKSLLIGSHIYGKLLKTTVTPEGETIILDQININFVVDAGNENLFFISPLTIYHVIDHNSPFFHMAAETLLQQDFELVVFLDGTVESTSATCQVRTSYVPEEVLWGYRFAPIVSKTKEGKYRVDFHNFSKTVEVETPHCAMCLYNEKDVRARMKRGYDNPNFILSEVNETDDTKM

For the assay, the target named is ROMK (Kir1.1) channel (Homo sapiens (Human), UniProt P48048). The assay is described as follows: Thallium Flux Assay. The assay is classed as cell-based. The method, then:
A Thallium Flux Assay was performed on each of the final product compounds of the Examples. This assay has been described previously; see, e.g., PCT Published Application WO 2013/062900.
`CC1=C(N2CC[C@]3(CC[C@@H](N(C)Cc4ccc5c(c4)Cn4nnnc4-5)CC3)C2=O)COC1=O` [Example 106] returned an IC50 of 8.8 nM.
Under `CC1=C(N2CC[C@]3(CC[C@@H](N(C)Cc4ccc5c(ccc6nnnn65)c4)CC3)C2=O)COC1=O` [Example 96] stands 21 nM; under `CC1=C(N2CC[C@]3(CC[C@H](NCc4ccc(-n5cnnn5)cc4)CC3)C2=O)COC1=O` [Example 43, (5s,8s)-2-(4-methyl-5-oxo-2,5-dihydrofuran-3-yl)-8-{[4-(1H-tetrazol-1-yl)benzyl]amino}-2-azaspiro[4.5]decan-1-one], 49 nM.
Under `CC1=C(N2CC[C@]3(CC[C@@H](N(C)[C@@H](C)c4ccc(-n5cnnn5)nc4)CC3)C2=O)COC1=O` [Example 95] stands 24 nM; under `CC1=C(N2CC[C@]3(CC[C@@H](N[C@H](C)c4ccc(-n5cnnn5)nc4)CC3)C2=O)COC1=O` [Example 10, (5R,8r)-8-(((R)-1-(6-(1H-tetrazol-1-yl)pyridin-3-yl)ethyl)amino)-2-(4-methyl-5-oxo-2,5-dihydrofuran-3-yl)-2-azaspiro[4.5]decan-1-one], 18 nM; under `CC1=C(N2C(=O)[C@]3(CC[C@H](NCc4ccc5c(c4)Cn4nnnc4-5)CC3)C[C@@H]2C)COC1=O` [Example 56, (3S,5r,8S)-8-(((5H-tetrazolo[5,1-a]isoindol-7-yl)methyl)amino)-3-methyl-2-(4-methyl-5-oxo-2,5-dihydrofuran-3-yl)-2-azaspiro[4.5]decan-1-one], 520 nM.
Under `CC1=C(N2CC[C@]3(CC[C@@H](N(C)Cc4ccc(-n5cnnn5)nn4)CC3)C2=O)COC1=O` [Example 80, (5r,8r)-2-(4-methyl-5-oxo-2,5-dihydrofuran-3-yl)-8-(methyl{[6-(1H-tetrazol-1-yl)pyridazin-3-yl]methyl}amino)-2-azaspiro[4.5]decan-1-one] stands 19 nM; under `CC1=C(N2CC[C@]3(CC[C@@H](NCc4ccc5c(c4)C(C)n4nnnc4-5)CC3)C2=O)COC1=O` (stereo partly drawn) [Example 53, (5r,8r)-2-(4-methyl-5-oxo-2,5-dihydrofuran-3-yl)-8-(((5-methyl-5H-tetrazolo[5,1-a]isoindol-7-yl)methyl)amino)-2-azaspiro[4.5]decan-1-one], 19 nM; under `C[C@H]1C[C@]2(CC[C@H](NCc3ccc4c(c3)Cn3nnnc3-4)CC2)C(=O)N1C1=CC(=O)OC1` [Example 62, (3S,5s,8R)-8-(((5H-tetrazolo[5,1-a]isoindol-7-yl)methyl)amino)-3-methyl-2-(5-oxo-2,5-dihydrofuran-3-yl)-2-azaspiro[4.5]decan-1-one], 20 nM.
In the case of `CC1=C(N2CC[C@]3(CC[C@@H](NCc4ccc(-n5ncnn5)nn4)CC3)C2=O)COC1=O` [Example 75, (5r,8r)-8-(((6-(2H-tetrazol-2-yl)pyridazin-3-yl)methyl)amino)-2-(4-methyl-5-oxo-2,5-dihydrofuran-3-yl)-2-azaspiro[4.5]decan-1-one], the 50% inhibitory concentration (IC50) was 9.3 nM.
Under `CC1=C(N2CC[C@]3(CC[C@@H](NCc4nnc(-n5cnnn5)cc4C)CC3)C2=O)COC1=O` [Example 12, (5r,8r)-2-(4-methyl-5-oxo-2,5-dihydrofuran-3-yl)-8-({[4-methyl-6-(1H-tetrazol-1-yl)pyridazin-3-yl]methyl}amino)-2-azaspiro[4.5]decan-1-one] stands 8.3 nM.
Under `C[C@H]1C[C@]2(CC[C@@H](N(C)Cc3ccc(-n4cnnn4)nn3)CC2)C(=O)N1C1=CC(=O)OC1` [Example 104, (3S,5r,8S)-8-(((6-(1H-tetrazol-1-yl)pyridazin-3-yl)methyl)(methyl)amino)-3-methyl-2-(5-oxo-2,5-dihydrofuran-3-yl)-2-azaspiro[4.5]decan-1-one] stands 41 nM.
Under `CC1=C(N2CC[C@]3(CC[C@@H](N[C@@H](C)c4ccc(-n5cnnn5)cn4)CC3)C2=O)COC1=O` [Example 29, (5S,8r)-2-(4-methyl-5-oxo-2,5-dihydrofuran-3-yl)-8-({(1S)-1-[5-(1H-tetrazol-1-yl)pyridin-2-yl]ethyl}amino)-2-azaspiro[4.5]decan-1-one] stands 20 nM; under `CC1=C(N2CC[C@]3(CC[C@@H](NCc4cnc5c(c4)Cn4nnnc4-5)CC3)C2=O)COC1=O` [Example 52, (5r,8r)-8-(((8H-tetrazolo[1′,5′:1,2]pyrrolo[3,4-b]pyridin-6-yl)methyl)amino)-2-(4-methyl-5-oxo-2,5-dihydrofuran-3-yl)-2-azaspiro[4.5]decan-1-one], 160 nM; under `CC1=C(N2CC[C@]3(CC[C@H](NCc4ccc(-n5cnnn5)cn4)CC3)C2=O)COC1=O` [Example 7A, (5s,8s)-2-(4-methyl-5-oxo-2,5-dihydrofuran-3-yl)-8-({[5-(1H-tetrazol-1-yl)pyridin-2-yl]methyl}amino)-2-azaspiro[4.5]decan-1-one], 24 nM.
Turning to `CC1=C(N2CC[C@]3(CC[C@@H](NCc4ccc(-n5cnnn5)cn4)CC3)C2=O)COC1=O` [Example 7B, (5r,8r)-2-(4-methyl-5-oxo-2,5-dihydrofuran-3-yl)-8-({[5-(1H-tetrazol-1-yl)pyridin-2-yl]methyl}amino)-2-azaspiro[4.5]decan-1-one], half-maximal inhibition (IC50) required 710 nM.
Under `CC1=C(N2CC[C@]3(CC[C@H](N(C)[C@@H](CO)c4ccc(-n5cnnn5)nc4)CC3)C2=O)COC1=O` [Example 101] stands 290 nM.
`CC1=C(N2CC[C@]3(CC[C@H](N(C)Cc4ccc5c(c4)Cn4nnnc4-5)CC3)C2=O)COC1=O` [Example 89] gave a half-inhibitory concentration (IC50) of 950 nM.
Under `CC1=C(N2CC[C@]3(CC[C@@H](NCc4ccc(-n5cnnn5)nc4)CC3)C2=O)COC1=O` [Example 5, (5r,8r)-2-(4-methyl-5-oxo-2,5-dihydrofuran-3-yl)-8-({[6-(1H-tetrazol-1-yl)pyridin-3-yl]methyl}amino)-2-azaspiro[4.5]decan-1-one] stands 16 nM; under `CC1=C(N2C(=O)[C@]3(CC[C@H](NCc4ccc5c(c4)Cn4nnnc4-5)CC3)C[C@H]2C)COC1=O` [Example 60, (3R,5r,8R)-8-(((5H-tetrazolo[5,1-a]isoindol-7-yl)methyl)amino)-3-methyl-2-(4-methyl-5-oxo-2,5-dihydrofuran-3-yl)-2-azaspiro[4.5]decan-1-one], 650 nM.
Under `CC1=C(N2CC[C@]3(CC[C@@H](N(CC(N)=O)Cc4ccc(-n5cnnn5)nc4)CC3)C2=O)COC1=O` [Example 141] stands 680 nM; under `CC1=C(N2CC[C@]3(CC[C@H](N(CC(N)=O)Cc4ccc(-n5cnnn5)nc4)CC3)C2=O)COC1=O` [Example 140], 110 nM.
Under `CC1=C(N2CC[C@]3(CC[C@@H](NCc4ncc(-n5cnnn5)nc4C)CC3)C2=O)COC1=O` [Example 14, (5r,8r)-2-(4-methyl-5-oxo-2,5-dihydrofuran-3-yl)-8-({[3-methyl-5-(1H-tetrazol-1-yl)pyrazin-2-yl]methyl}amino)-2-azaspiro[4.5]decan-1-one] stands 30 nM; under `CC1=C(N2CC[C@]3(CC[C@@H](NCc4ccc5c(c4F)Cn4nnnc4-5)CC3)C2=O)COC1=O` [Example 59, (5r,8r)-8-(((6-fluoro-5H-tetrazolo[5,1-a]isoindol-7-yl)methyl)amino)-2-(4-methyl-5-oxo-2,5-dihydrofuran-3-yl)-2-azaspiro[4.5]decan-1-one], 6 nM.
`CC1=C(N2CC[C@]3(CC[C@H](NCCc4ccc5c(c4)COC5=O)CC3)C2=O)COC1=O` [Example 3, (5s,8s)-2-(4-methyl-5-oxo-2,5-dihydrofuran-3-yl)-8-{[2-(1-oxo-1,3-dihydro-2-benzofuran-5-yl)ethyl]amino}-2-azaspiro[4.5]decan-1-one]: the 50% inhibitory concentration (IC50) was 200 nM.
Under `CC1=C(N2CC[C@]3(CC[C@H](NCc4ccc(-n5ncnn5)cc4)CC3)C2=O)COC1=O` [Example 40, (5s,8s)-2-(4-methyl-5-oxo-2,5-dihydrofuran-3-yl)-8-{[4-(2H-tetrazol-2-yl)benzyl]amino}-2-azaspiro[4.5]decan-1-one] stands 110 nM; under `CC1=C(N2CC[C@]3(CC[C@@H](N[C@H](C)c4ccc5c(c4)CCc4nnnn4-5)CC3)C2=O)COC1=O` [Example 18, (5R,8r)-8-{[(1R)-1-(4,5-dihydrotetrazolo[1,5-a]quinolin-7-yl)ethyl]amino}-2-(4-methyl-5-oxo-2,5-dihydrofuran-3-yl)-2-azaspiro[4.5]decan-1-one], 330 nM.
With `C[C@@H]1C[C@]2(CC[C@H](NCc3cnc(-n4cnnn4)cn3)CC2)C(=O)N1C1=CC(=O)OC1` [Example 26, (3R,5s,8S)-3-methyl-2-(5-oxo-2,5-dihydrofuran-3-yl)-8-({[5-(1H-tetrazol-1-yl)pyrazin-2-yl]methyl}amino)-2-azaspiro[4.5]decan-1-one], inhibition was half-maximal at 190 nM (IC50).
Under `CC1=C(N2CC[C@]3(CC[C@@H](N[C@H](C)c4ccc(-n5cnnn5)cn4)CC3)C2=O)COC1=O` [Example 32] stands 110 nM; under `CC1=C(N2CC[C@]3(CC[C@H](NC[C@H](O)c4ccc5c(c4C)COC5=O)CC3)C2=O)COC1=O` [Example 79, (5S,8s)-8-{[(2R)-2-hydroxy-2-(4-methyl-1-oxo-1,3-dihydro-2-benzofuran-5-yl)ethyl]amino}-2-(4-methyl-5-oxo-2,5-dihydrofuran-3-yl)-2-azaspiro[4.5]decan-1-one], 280 nM.
`CCCN(C[C@H](O)c1ccc2c(c1C)COC2=O)C1CCC2(CC1)CCN(C1=C(C)C(=O)OC1)C2=O` (stereo partly drawn) [Example 132, 8-{[(2R)-2-hydroxy-2-(4-methyl-1-oxo-1,3-dihydro-2-benzofuran-5-yl)ethyl](propyl)amino}-2-(4-methyl-5-oxo-2,5-dihydrofuran-3-yl)-2-azaspiro[4.5]decan-1-one]: half-maximal inhibition (IC50) required 100 nM.
Under `CC1=C(N2CC[C@]3(CC[C@@](C)(NCc4ccc(-n5cnnn5)nn4)CC3)C2=O)COC1=O` [Example 48, (5r,8r)-8-methyl-2-(4-methyl-5-oxo-2,5-dihydrofuran-3-yl)-8-({[6-(1H-tetrazol-1-yl)pyridazin-3-yl]methyl}amino)-2-azaspiro[4.5]decan-1-one] stands 7.7 nM; under `CC1=C(N2C(=O)[C@]3(CC[C@H](N(C)Cc4ccc5c(c4)Cn4nnnc4-5)CC3)C[C@@H]2C)COC1=O` [Example 120], 43 nM.

Usually IC50 stands for the concentration that gives 50% inhibition.
